Measurements from US12714706B2, “Methods of treating small cell lung cancer with lurbinectedin formulations” (PHARMA MAR, S.A., priority 2019, dated 2026).
Values after ≈ are worked out from the molar mass of the structure shown.

Key:
SCLC = assay: Phase 2 trial of lurbinectedin monotherapy in SCLC: antitumor activity (ORR, DOR, PFS, OS; RECIST v1.1); type: in vivo, human
Protocol: A clinical study of lurbinectedin monotherapy for patients collectively afflicted with SCLC who have refractory or resistant disease, as defined herein, was carried out. In this clinical single-arm, multi-center, open-label, phase 2 trail, a cohort of 105 patients, who had measurable disease, including patients whose SCLC was unresponsive to first-line platinum-containing chemotherapy (cisplatin, carboplatin or oxaliplatin) (refractory) and patients whose SCLC recurred within or equal to 90 days after cessation of first-line therapy (resistant), were treated with lurbinectedin at a dosage of 3.2 mg/m^2 given intravenously over a period of 1 hour every 21 days. Lurbinectedin was provided as a sterile isotonic aqueous solution for IV infusion as described below.
Starting dose was 3.2 mg/m^2. Dose was capped at body surface area of […] (e.g. dose not allowed to exceed 6.4 mg). Patients received lurbinectedin i.v. as a one-hour infusion on Day 1 every three weeks until disease progression or unacceptable toxicity. Three weeks was defined as one treatment cycle.
The primary objective of this study was to assess the antitumor activity of lurbinectedin in terms of overall response rate (ORR) as primary endpoint and supported by duration of response (DOR) as secondary endpoint. ORR was assessed using RECIST v1.1. on a set of measurable lesions identified at baseline as target lesions or as non-target lesions (if any), and followed until disease progression (PD) by an appropriate method.
Radiological tumor assessment (CT scan or MRI) was performed at baseline, and every 6 weeks from the onset of the study treatment until cycle 6 or evidence of PD, and every 9 weeks thereafter. If an objective response was observed, according to RECIST v1.1., it had to be confirmed by the same method at least four weeks after the date of the first documentation of response.
ORR was defined as the percentage of evaluable patients with a confirmed response, either complete (CR) or partial response (PR), from the start of treatment to the date of progression or the start of a subsequent therapy or end of patients follow-up according to RECIST v1.1. DOR was calculated […], recurrence, or death due to any cause in the responder patients. The date of response, the date of radiological or clinical PD, according to the investigator assessment and the independent assessment by an independent review committee (IRC), and the date of death was registered and documented, as appropriate. The IRC determined the patient's best response and assigned the date of first documentation of response and progression/censoring according to RECIST v1.1.
Counts and percentages, with their corresponding exact 95% confidence intervals were calculated for the binominal endpoints (i.e. ORR, clinical benefit). Time-to-event variables (OS, PFS, and DOR) and their set time estimates (i.e. PFS4/6 and OS6/12) were analyzed according to Kaplan-Meier method. The evaluation of the efficacy endpoints evaluated by IA and IRC were analyzed and compared.

advanced solid tumors = assay: Phase 1 dose escalation of lurbinectedin plus irinotecan: MTD, RD and dose limiting toxicities; type: in vivo, human
Protocol: A clinical study of lurbinectedin in combination with irinotecan for patients afflicted with solid tumors was carried out. […] Patients were enrolled following a standard 3+3 dose escalation design. Phase Ib/II expansion part at the recommended dose (RD) was performed to explore efficacy in indications where antitumor activity signal was observed.
Three weeks was defined as one treatment cycle.
Primary outcome measures were (1) maximum tolerated dose (MTD) and (2) recommended dose (RD). MTD was defined as lowest dose explored during dose escalation which one third or more of evaluable patients develop DLT in Cycle 1. RD was defined as highest dose level explored during dose escalation in which fewer than one third of evaluable patients develop DLT during Cycle 1.

patients = settings: previous analysis, dose based on body surface area; cited from earlier work
[1] = chemotherapy-free interval less than 90 days (resistant)
[2] = lurbinectedin D1 q3w with irinotecan 75 mg/m2 D1 & D8 q3w

COc1ccc2[nH]c3c(c2c1)CCN[C@]31CS[C@@H]2c3c(OC(C)=O)c(C)c4c(c3[C@H](COC1=O)N1[C@@H]2[C@H]2c3c(cc(C)c(OC)c3O)C[C@@H]([C@@H]1O)N2C)OCO4 [lurbinectedin, Lurbinectedin]
Median overall survival of patients with initial objective response (post-hoc) (SCLC; 37 responders, overall population): 12.6 months
Duration of response, median (SCLC; IRC assessment, overall): 5.1 months
Overall response rate (CR + PR) (SCLC; Investigator assessment, resistant disease (CTFI <90 days, n = 45)): 22.2%
Patients alive at 1 year after the first dose (SCLC; chemotherapy-free interval less than 90 days (n = 45)): 16%
Median overall survival (SCLC; [1]): 5.0 months
Median progression-free survival (SCLC; [1]): 2.6 months
Disease progression with new lesions in the CNS (SCLC; of 94 patients who discontinued lurbinectedin): 9%
Median overall survival of patients with initial objective response (post-hoc) (SCLC; responders with resistant disease): 10.9 months
DLTs/Evaluable patients (advanced solid tumors; Dose Level 1: lurbinectedin 1.0 mg/m2 D1 + irinotecan 75 mg/m2 D1 & D8, q3w): 1/6
DLTs/Evaluable patients (advanced solid tumors; Dose Level 2: lurbinectedin 1.5 mg/m2 D1 + irinotecan 75 mg/m2 D1 & D8, q3w): 1/4
DLTs/Evaluable patients (advanced solid tumors; Dose Level 3 (without G-CSF): lurbinectedin 2.0 mg/m2 D1 + irinotecan 75 mg/m2 D1 & D8, q3w): 4/11
DLTs/Evaluable patients (advanced solid tumors; Dose Level 3* (with G-CSF): lurbinectedin 2.0 mg/m2 D1 + irinotecan 75 mg/m2 D1 & D8, q3w): 3/12
DLTs/Evaluable patients (advanced solid tumors; Dose Level 4* (with G-CSF): lurbinectedin 2.4 mg/m2 D1 + irinotecan 75 mg/m2 D1 & D8, q3w): 2/3
MTD with G-CSF (lurbinectedin dose) (advanced solid tumors; [2]): 2.4 mg/m2
MTD without G-CSF (lurbinectedin dose) (advanced solid tumors; [2]): 2.0 mg/m2
RD with G-CSF (lurbinectedin dose) (advanced solid tumors; [2]): 2.0 mg/m2
Incidence of febrile neutropenia (patients): lower than 10%
solubility (physchem; sodium acetate buffer, pH 3, aqueous buffer): 0.95 mg/mL (≈ 1210 µM)
solubility (physchem; sodium acetate buffer, pH 4, aqueous buffer): 0.94 mg/mL (≈ 1200 µM)
solubility (physchem; sodium acetate buffer, pH 5, aqueous buffer): 0.03 mg/mL (≈ 38.2 µM)
solubility (physchem; sodium citrate buffer, pH 3, aqueous buffer): 0.94 mg/mL (≈ 1200 µM)
solubility (physchem; sodium citrate buffer, pH 4, aqueous buffer): 0.93 mg/mL (≈ 1180 µM)
solubility (physchem; sodium citrate buffer, pH 5, aqueous buffer): 0.5 mg/mL (≈ 637 µM)
solubility (physchem; sodium lactate buffer, pH 3, aqueous buffer): 0.94 mg/mL (≈ 1200 µM)
solubility (physchem; sodium lactate buffer, pH 4, aqueous buffer): 0.9 mg/mL (≈ 1150 µM)
solubility (physchem; sodium lactate buffer, pH 5, aqueous buffer): 0.03 mg/mL (≈ 38.2 µM)
solubility (physchem; sodium succinate buffer, pH 3, aqueous buffer): 0.96 mg/mL (≈ 1220 µM)
solubility (physchem; sodium succinate buffer, pH 4, aqueous buffer): 0.97 mg/mL (≈ 1240 µM)
solubility (physchem; sodium succinate buffer, pH 5, aqueous buffer): 0.04 mg/mL (≈ 51 µM)
